Results reported in US20120022032A1, “CORTICOSTEROID COMPOSITIONS AND METHODS OF TREATMENTS THEREOF” (priority 2008, published 2012).
≈ marks a conversion by molar mass, not a printed value. Where two headings read alike, the source gives them in different places.

What was measured:
Type in all cases: physicochemical
[1] = Microemulsion equilibrium solubility determination of mometasone furoate; settings: for concentration of mometasone furoate achieved: 5% MIGLYOL; for solubility at 72 h: SOLUTOL HS-15-based microemulsion, aqueous with cosolvent or surfactant or cyclodextrin, thermodynamic from solid
Procedure: The equilibrium solubility of mometasone furoate is determined in SOLUTOL® HS-15-based microemulsion composition composed of 20% of SOLUTOL® HS-15 with varying amounts of different oils (FIG. 2, Table 2). An excess amount of the drug is added in the solutions after water had been added. The vials is shaken over a 72 hour period. The solutions is centrifuged and filtered at various time intervals prior to analysis of the samples by HPLC. The drug solubility ranged from 300 mcg/ml to 600 mcg/g. Alternative oils are also explored (Table 3).
The concentration was ˜519 mcg/ml in a similar composition where PBS was replaced with water. To achieve a concentration of exactly 500 mcg/ml, roughly 5 mg of the drug was weighed and added to a mixture of 2 g of SOLUTOL® HS-15 and 0.5 g of MIGLYOL® 812, that was previously mixed using a magnetic stir bar. After the drug was dissolved in the pre-concentrate, 7.5 g of distilled water was added to the above mix to formulate a microemulsion of mometasone furoate.

[2] = as above; settings: POLOXAMER 407-based microemulsion, aqueous with cosolvent or surfactant or cyclodextrin, thermodynamic from solid, microemulsion: ethyl laurate 5% w/w, POLOXAMER 407 10% w/w; read-out: MF Solubility
[3] = MF solubility in cyclodextrin solutions; settings: 3 mM citrate buffer pH 4.5
[4] = MF solubility in cyclodextrin solutions; settings: 3 mM citrate buffer pH 4.5; remark: listed apart in the source
Procedure: Compositions of mometasone furoate 6 mg/ml were prepared in duplicate with a 0.05, […], and 0.2 M of four different cyclodextrins: an unsubstituted gamma cyclodextrin, a sulfobutyl ether (SBE) beta cyclodextrin (Captisol), and two substituted SBE gamma cyclodextrins. Only 0.05 and 0.1M cyclodextrins were evaluated for the unsubstituted gamma cyclodextrin. All compositions were prepared in a 3 mM citrate buffer at a pH of 4.5. The compositions were placed on a roller mixer (Stuart Scientific SRT233 rpm rise/fall 16 mm) protected from light and mixed for about three days. After the three day equilibration, the compositions were filtered using a 0.22 micrometer PVDF syringe filter and analyzed by HPLC.

[5] = Micellar solubility determination of MF in 10% surfactant solutions in water; settings: for solubility: 10% w/w excipient solution in water, aqueous with cosolvent or surfactant or cyclodextrin, thermodynamic from solid
Procedure: To determine the solubility of MF in various solutions, various MF solutions are prepared by measuring each excipient into a beaker at a 10% w/w concentration. If needed, the excipients are melted using a water bath maintained at 65° C. for approximately 30 minutes. The composition is q.s. to 50 g with water and mixed with an overhead/lightening mixer. Approximately 50-60 mg of anhydrous mometasone furoate anhydrous is added into each mixture. The solutions are mixed at a low speed on a shaker (Eberbacher) for about 48 to about 72 hours. Approximately 20 mL of each suspension are removed and centrifuged at 1200 rpm for 12 minutes. Approximately 5 mL of the supernatant is filtered using a 0.22 μm syringe filter. A 1 mL sample is taken from each filtered sample, diluted, and assayed using an HPLC.

[6] = Effect of additives on MF solubility in 0.2 M Captisol solution; settings: aqueous with cosolvent or surfactant or cyclodextrin
Procedure: A stock solution of 0.2 M Captisol (SBE beta cyclodextrin) was prepared. Table 5 and FIG. 4 list the effect of various additives on the MF solubility of this solution: […]

[7] = anhydrous MF, 10% w/w CREMOPHOR RH 40 (polyoxyl 40 hydrogenated castor oil) in water
[8] = anhydrous MF, 10% w/w SOLUTOL HS 15 (polyethylene glycol 660-12 hydroxystearate) in water
[9] = anhydrous MF, 10% w/w TWEEN 80 (polysorbate 80) in water

SMILES: C[C@@H]1C[C@H]2[C@@H]3CCC4=CC(=O)C=C[C@]4(C)[C@@]3(Cl)[C@@H](O)C[C@]2(C)[C@@]1(OC(=O)c1ccco1)C(=O)CCl [MF, mometasone furoate]
- concentration of mometasone furoate achieved ([1]; 20% w/w SOLUTOL HS-15, 75% phosphate buffer system (PBS)): 538 µg/mL
- concentration of mometasone furoate achieved ([1]; 20% w/w SOLUTOL HS-15, PBS replaced with water): ~519 µg/mL
- solubility at 72 h ([1]; 20% SOLUTOL HS-15 microemulsions with varying amounts of different oils, 72 hour shaking, read-out: drug solubility (equilibrium)): 300 to 600 µg/mL (≈ 575 to 1150 µM)
- solubility at 72 h ([1]; microemulsion Example 1: MIGLYOL 812 4% w/w, SOLUTOL HS 15 20% w/w, read-out: Solubilized MF): 502 µg/mL (≈ 963 µM)
- solubility at 72 h ([1]; microemulsion Example 2: MIGLYOL 812 5% w/w, SOLUTOL HS 15 20% w/w, read-out: Solubilized MF): 538 µg/mL (≈ 1030 µM)
- solubility at 72 h ([1]; microemulsion Example 4: MIGLYOL 840 4% w/w, SOLUTOL HS 15 20% w/w, read-out: Solubilized MF): 540 µg/mL (≈ 1040 µM)
- solubility at 72 h ([1]; microemulsion Example 5: CAPRYOL 3% w/w, SOLUTOL HS 15 20% w/w, read-out: Solubilized MF): 422 µg/mL (≈ 809 µM)
- solubility at 72 h ([1]; microemulsion Example 6: corn oil 3% w/w, SOLUTOL HS 15 20% w/w, read-out: Solubilized MF): 408 µg/mL (≈ 782 µM)
- solubility at 72 h ([1]; microemulsion Example 7: oleic acid 2% w/w, SOLUTOL HS 15 20% w/w, read-out: Solubilized MF): 323 µg/mL (≈ 619 µM)
- solubility at 72 h ([1]; microemulsion Example 8: soybean oil 1% w/w, SOLUTOL HS 15 20% w/w, read-out: Solubilized MF): 375 µg/mL (≈ 719 µM)
- solubility at 72 h ([1]; microemulsion Example 9: soybean oil 2% w/w, SOLUTOL HS 15 20% w/w, read-out: Solubilized MF): 397 µg/mL (≈ 761 µM)
- solubility at 72 h ([1]; microemulsion: ethyl laurate 5% w/w, polyethylene glycol 660-12 hydroxystearate 20% w/w, read-out: MF Solubility): 540 µg/mL (≈ 1040 µM)
- drug concentration determined by HPLC ([1]; about 5 mg drug dissolved in 2 g SOLUTOL HS-15 + 0.5 g MIGLYOL 812, then 7.5 g distilled water, target 500 mcg/ml): 500 µg/mL
- solubility at 72 h [2]: 90 µg/mL (≈ 173 µM)
- Concentration of MF in solutions with cyclodextrins ([3]; Captisol (SBE beta-CD) 0.1M): 152 µg/mL
- Concentration of MF in solutions with cyclodextrins ([3]; SBE(6.1) gamma-CD 0.1M): 626 µg/mL
- Concentration of MF in solutions with cyclodextrins ([3]; SBE(6.2) gamma-CD 0.1M): 569 µg/mL
- Concentration of MF in solutions with cyclodextrins ([4]; Captisol (SBE beta-CD) 0.05M, three day equilibration): 84 µg/mL
- Concentration of MF in solutions with cyclodextrins ([4]; Captisol (SBE beta-CD) 0.2M): 261 µg/mL
- Concentration of MF in solutions with cyclodextrins ([4]; SBE(6.1) gamma-CD 0.05M): 262 µg/mL
- Concentration of MF in solutions with cyclodextrins ([4]; SBE(6.1) gamma-CD 0.2M): 1840 µg/mL
- Concentration of MF in solutions with cyclodextrins ([4]; SBE(6.2) gamma-CD 0.05M): 250 µg/mL
- Concentration of MF in solutions with cyclodextrins ([4]; SBE(6.2) gamma-CD 0.2M): 1940 µg/mL
- Concentration of MF in solutions with cyclodextrins ([4]; unsubstituted gamma-CD 0.05M): 117 µg/mL
- Concentration of MF in solutions with cyclodextrins ([4]; unsubstituted gamma-CD 0.1M): 249 µg/mL
- solubility ([5]; 10% Vitamin E TPGS in water): ~500 µg/mL (≈ 959 µM)
- solubility [5, 7]: 180 to 200 µg/mL (≈ 345 to 384 µM)
- solubility ([5]; anhydrous MF, 10% w/w LUTROL F127 (poloxamer 407) in water): 27 µg/mL (≈ 51.8 µM)
- solubility [5, 8]: 180 to 200 µg/mL (≈ 345 to 384 µM)
- solubility [5, 9]: 180 to 200 µg/mL (≈ 345 to 384 µM)
- solubility ([5]; anhydrous MF, 10% w/w Vitamin E TPGS (d-α tocopheryl PEG 1000 succinate) in water): 499 µg/mL (≈ 957 µM)
- solubility ([5]; solutions with 10% polyoxamers): < 30 µg/mL
- solubility ([5]; solutions with 10% polyvinylpyrrolidones): < 30 µg/mL
- MF Solubility [5, 7]: 189 µg/mL
- MF Solubility [5, 8]: 184 µg/mL
- MF Solubility [5, 9]: 199 µg/mL
- solubility ([6]; 0.2 M Captisol + 0.01% w/v Polysorbate 80): 235 µg/mL
- solubility ([6]; 0.2 M Captisol + 0.02% w/v Benzalkonium Chloride): 243 µg/mL
- solubility ([6]; 0.2 M Captisol + 0.1% w/v HPMC): 258 µg/mL
- solubility ([6]; 0.2 M Captisol + 0.1% w/v Na-CMC): 242 µg/mL
- solubility ([6]; 0.2 M Captisol + 0.1% w/v PVP-30): 290 µg/mL
- solubility ([6]; 0.2 M Captisol + 1% v/v EtOH): 236 µg/mL
- solubility ([6]; 0.2 M Captisol + 2.1% w/v Glycerin): 220 µg/mL
- solubility ([6]; 0.2 M Captisol + 10% v/v EtOH): 121 µg/mL
- solubility ([6]; 0.2 M Captisol + 10% w/v Propylene Glycol): 107 µg/mL
